# Where two headings read alike, the source gives them in different places.
# System: IL-13 release from KU812 cells
# Assay: IL-13 release assay in KU812 cells (PMA + ionomycin, IL-13 ELISA)
# Type: cell-based, human
SMILES,"inhibition at 10 µM (Homo sapiens, positive control 10 μM, read-out: Percentages of IL-13 inhibition)","inhibition at 1 µM (Homo sapiens, 1 μM, read-out: Percentages of IL-13 inhibition)","inhibition at 10 µM (Homo sapiens, 10 μM (Fistein), read-out: Percentages of IL-13 inhibition)","inhibition at 100 µM (Homo sapiens, 100 μM, read-out: Percentages of IL-13 inhibition)","IL-13 release / inhibition, in words (first screening (Examples 1 and 3))"
C[C@@H]1C[C@H]2[C@@H]3CCC4=CC(=O)C=C[C@]4(C)[C@@]3(F)[C@@H](O)C[C@]2(C)[C@@]1(O)C(=O)CO [Dexamethasone],52%,,,,
"O=c1c(O)c(-c2ccc(O)c(O)c2)oc2cc(O)ccc12 [Fistein, Fisetin]",,26.5%,17.3%,35.7%,the inhibition percentages were relatively low

# Reference: patent publication US10967031B2, “Synergistic herbal compositions with prebiotic properties for treatment of skin infections, allergies and inflammation” (priority 2010, dated 2021)
